This note sets out measurements from US8101608B2, “Compounds and compositions as protein kinase inhibitors” (IRM LLC, a Delware Limited Corporation, priority 2004, dated 2012).

The target of assay [1] is T1, trkC (Homo sapiens, UniProt Q16288).
T1 construct: fused on or other part: P41212 (Transcription factor ETV6)
The assay can be described thus: Inhibition of cellular ETV6-NTRK3 dependent proliferation (Ba/F3 EN cells). In kind it is cell-based, murine. The following applies: MTT, read-out: IC50 for TrkC. As to the method: The murine cell line used is the Ba/F3 hematopoietic progenitor cell line transformed with ETV6-NTRK3 cDNA (Ba/13 EN). These cells are maintained in RPMI/10% fetal calf serum (RPMI/FCS) supplemented with penicillin 50 μg/mL, streptomycin 50 μg/mL and L-glutamine […]. Untransformed Ba/F3 cells are similarly maintained with the addition of 10% of WEHI conditioned medium as a source of IL3.

Assay [2] addresses T2, Aurora-A (Homo sapiens, UniProt O14965).
T2 construct: purchased Upstate (KinaseProfiler panel)
T2 sequence (O14965 1-403): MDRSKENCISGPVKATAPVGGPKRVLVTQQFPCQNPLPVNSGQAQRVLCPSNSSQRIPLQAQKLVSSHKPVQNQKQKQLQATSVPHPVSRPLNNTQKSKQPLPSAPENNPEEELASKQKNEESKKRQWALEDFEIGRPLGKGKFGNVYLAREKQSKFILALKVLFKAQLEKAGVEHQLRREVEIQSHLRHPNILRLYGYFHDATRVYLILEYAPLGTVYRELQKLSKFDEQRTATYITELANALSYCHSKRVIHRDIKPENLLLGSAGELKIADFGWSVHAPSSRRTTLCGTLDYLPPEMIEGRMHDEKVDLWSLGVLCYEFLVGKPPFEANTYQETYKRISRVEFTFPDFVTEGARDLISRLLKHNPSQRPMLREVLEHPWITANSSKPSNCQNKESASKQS
Nature of the assay: Kinase inhibition, Upstate KinaseProfiler radio-enzymatic filter binding assay. The class given is biochemical. How it is done:
(§1) Percentage inhibition is calculated for each reaction.

The target in assay [3] is T3, c-RAF (Homo sapiens, UniProt P04049).
T3 construct: "active kinase (0.001-0.01 Units); fused on or other part: Probably an N-terminal GST tag (vendor's product)
Described as above. The class given is biochemical. As to the method:
as §1

T3 sequence (P04049 whole entry Y340D/Y341D, form open, the tested form may be a part): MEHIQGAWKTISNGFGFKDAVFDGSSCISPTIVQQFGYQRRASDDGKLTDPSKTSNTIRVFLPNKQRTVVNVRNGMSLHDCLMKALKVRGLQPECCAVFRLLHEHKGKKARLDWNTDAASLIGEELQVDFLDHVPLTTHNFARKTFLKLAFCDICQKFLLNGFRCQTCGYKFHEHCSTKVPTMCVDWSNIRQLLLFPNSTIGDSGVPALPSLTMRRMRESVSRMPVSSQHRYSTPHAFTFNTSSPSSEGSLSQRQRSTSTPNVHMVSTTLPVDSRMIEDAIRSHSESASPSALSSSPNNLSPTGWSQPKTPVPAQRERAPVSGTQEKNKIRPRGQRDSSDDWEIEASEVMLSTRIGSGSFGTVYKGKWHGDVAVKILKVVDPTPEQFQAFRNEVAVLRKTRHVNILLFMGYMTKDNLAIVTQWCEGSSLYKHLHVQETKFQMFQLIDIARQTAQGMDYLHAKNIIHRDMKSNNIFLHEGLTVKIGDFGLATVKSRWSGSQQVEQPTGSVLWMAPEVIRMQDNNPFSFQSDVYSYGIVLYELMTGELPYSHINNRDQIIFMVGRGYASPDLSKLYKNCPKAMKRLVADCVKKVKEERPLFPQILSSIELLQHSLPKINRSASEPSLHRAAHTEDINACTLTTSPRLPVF
T1 sequence (Q16288 whole entry, change not shown, the tested form may be a part): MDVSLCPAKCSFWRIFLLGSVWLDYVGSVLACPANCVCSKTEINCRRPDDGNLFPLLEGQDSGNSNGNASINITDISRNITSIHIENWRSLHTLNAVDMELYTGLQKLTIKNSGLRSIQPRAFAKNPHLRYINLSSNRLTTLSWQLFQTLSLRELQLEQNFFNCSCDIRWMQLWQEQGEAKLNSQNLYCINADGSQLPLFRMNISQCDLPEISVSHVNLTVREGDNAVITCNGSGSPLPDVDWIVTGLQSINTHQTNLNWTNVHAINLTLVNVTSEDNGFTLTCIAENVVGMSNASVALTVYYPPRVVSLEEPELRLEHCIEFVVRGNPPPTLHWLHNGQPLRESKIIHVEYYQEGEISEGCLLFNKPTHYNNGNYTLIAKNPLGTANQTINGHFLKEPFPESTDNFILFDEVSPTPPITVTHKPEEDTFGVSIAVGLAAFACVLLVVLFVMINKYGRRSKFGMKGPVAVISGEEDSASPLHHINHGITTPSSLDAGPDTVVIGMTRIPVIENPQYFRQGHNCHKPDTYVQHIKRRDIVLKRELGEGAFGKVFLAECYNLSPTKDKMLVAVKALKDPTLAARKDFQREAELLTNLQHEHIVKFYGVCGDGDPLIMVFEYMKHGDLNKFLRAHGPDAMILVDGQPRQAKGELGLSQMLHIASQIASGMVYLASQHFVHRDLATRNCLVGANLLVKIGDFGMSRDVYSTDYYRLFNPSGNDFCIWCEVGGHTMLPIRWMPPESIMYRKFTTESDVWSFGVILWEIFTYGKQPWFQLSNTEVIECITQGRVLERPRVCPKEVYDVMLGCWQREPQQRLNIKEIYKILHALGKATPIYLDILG

Regarding `Cc1cn(-c2cc(C(=O)Nc3cccc(Nc4ccc5c(c4)NC(=O)/C5=C/c4ccc[nH]4)c3)cc(C(F)(F)F)c2)cn1` [Example 1], the GI50 in assay [1] was 16.7 nM. Besides, the IC50 was found to be 15 nM in assay [2] and 116 nM in assay [3].
